Patent US12018011B2, “Macrocyclic compounds and compositions, and methods of preparing and using the same” (Kura Oncology, Inc., priority 2021, dated 2024)

What was measured:
[1] = biological target: T1, Recombinant human farnesyl transferase (FTase) (Homo sapiens, UniProt P49356); experiment: FTase fluorescence assay (farnesylation of dansyl-GCVLS peptide); assay type: biochemical; conditions: recombinant human FTase 2.5 nM, Dansyl-GCVLS 85 nM, FPP 30 nM, 30° C., 50 minutes
T1 construct: purchased Crelux (Martinsried, Germany)

[2] = from Cn1cncc1C(O)(c1ccc(Br)c(CO)c1)c1ccc2nc(Cl)cc(-c3cccc(O)c3)c2c1; ether bond; Cs2CO3; DMF; 116.2 mM; 70.0 °C; 2.0 h; 2 steps
[3] = Metabolic stability in human liver microsomes; assay type: in vitro ADME; conditions: human liver microsomes 0.5 mg protein/mL, test compound 1 μM, 37° C.; read-out: T1/2 in HLM
Procedure: (§1) The metabolic stability of the compounds disclosed herein was determined by measuring half-life (T1/2) of the compounds in the presence of mouse liver microsomes (MLM) or human liver microsomes (BILM).
(§2) Intermediate solution: 5 μL of compound and control stock solution (10 mM in dimethyl sulfoxide (DMSO)) were diluted with 495 μL of acetonitrile (ACN) (intermediate solution concentration: 100 μM, 99% ACN).
(§3) Working solution: 50 μL of compound and control intermediate solution (100 μM) were diluted with 450 μL of 100 mM potassium phosphate buffer (working solution concentration: 10 μM, 9.9% ACN).
(§4) Controls used in this assay: Testosterone, Diclofenac, and Propafenone.
(§5) Preparation Procedure: The appropriate amount of NADPH powder was weighed and diluted into a 10 mM MgCl2 solution (working solution concentration: 10 unit/mL; final concentration in reaction system: 1 unit/mL).
(§6) The appropriate concentrations of microsome working solutions were prepared in 100 mM potassium phosphate buffer.
(§7) Cold (4° C.) acetonitrile (CAN) containing 200 ng/mL tolbutamide and 200 ng/mL labetalol as internal standards (IS) was used as the stop solution.
(§8) Using an Apricot automation workstation, 10 μL/well of compound working solution were added to all 96-well reaction plates except the blank (T0, T5, T10, T20, T30, T60, and NCF60).
(§9) An Apricot automation workstation was used to add 80 μL/well of microsome solution to all reaction plates (Blank, T0, T5, T10, T20, T30, T60, and NCF60).
(§10) All reaction plates containing mixtures of compound and microsomes were pre-incubated at 37° C. for 10 minutes.
(§11) An Apricot automation workstation was used to add 10 μL/well of 100 mM potassium phosphate buffer to reaction plate NCF60.
(§12) Reaction plate NCF60 was incubated at 37° C. for 60 minutes.
(§13) After pre-incubation, an Apricot automation workstation was used to add 10 μL/well of NADPH regenerating system to every reaction plate except NCF60 (Blank, T0, T5, T10, T20, T30, and T60) to start the reaction. Final concentration of each component in incubation medium: Microsome (0.5 mg protein/mL); Test Compound (1 μM); Control Compound (1 μM); Acetonitrile (0.99%); DMSO (0.01%).
(§14) The reaction plates were incubated at 37° C. for 0 minute (T0, stop solution was added prior to microsome and NADPH solutions), 5 minutes (T5), 10 minutes (T10), 20 minutes (T20), 30 minutes (T30), 60 minutes (T60).
(§15) An Apricot automation workstation was used to add 300 μL/well of stop solution to each reaction plate at its appropriate end time point to terminate the reaction.
(§16) Each plate was sealed and shaken for 10 minutes.
(§17) After shaking, each plate was centrifuged at 4000 rpm and 4° C. for 20 minutes.
(§18) During centrifugation, an Apricot automation workstation was used to add 300 µL/well of HPLC grade water to eight new 96-well plates.
(§19) After centrifugation, an Apricot automation workstation was used to transfer 100 μL of supernatant from each reaction plate to its corresponding bioanaylsis plate.
(§20) Each bioanalysis plate was sealed and shaken for 10 minutes prior to LC-MS/MS analysis.
(§21) The equation of first order kinetics was used to calculate T1/2 and CLint(mic) (μL/min/mg).

[4] = biological target: T2, geranylgeranyl transferase type-1 (GGTase) (Homo sapiens, UniProt P53609); experiment: GGTase fluorescence assay (dansyl-GCVLL peptide, GGPP); assay type: biochemical; conditions: GGTase 25 nM, Dansyl-GCVLL 10 μM, GGPP 10 μM, 30° C., 120 minutes
T2 construct: purchased Crelux (Martinsried, Germany)
Source text: T24/83 cell line was purchased from the European Collection of Authenticated Cell Cultures (Salisbury, UK). Recombinant human farnesyl transferase (FTase) and geranylgeranyl transferase type-1 (GGTase) were obtained from Crelux (Martinsried, Germany). Dansyl labelled GCVLS peptide was purchased from Bachem (Torrance, CA), and Dansyl labelled GCVLL peptide was purchased from Bio Synthesis (Lewisville, TX). Farnesyl Pyrophosphate (FPP) and Geranylgeranyl pyrophosphate (GGPP) were purchased from Cayman (Ann Arbor, MI).
Geranylgeranyl transferase (GGTase) is a closely related enzyme to farnesyl transferase (FTase). The two enzymes share a common regulatory chain but have distinct individual enzymatic domains. GGTase catalyses the addition of an alternative prenylated side chain to some of the same proteins that may also be farnesylated. Thus, selective inhibitory activity against FTase relative to GGTase is a critical characteristic for FTase inhibitors.
The IC50 value of the compounds disclosed herein as inhibitors of Ftase and/or GGTase, was determined by measuring the concentration (provided in nM) necessary to achieve inhibition of enzyme activity by 50% (IC50). […] Compounds having a low IC50 value against FTase, for example an IC50 (FTase)<100 nM, such as an IC50 (FTase)<10 nM, are preferred. Compounds having a low IC50 value against FTase and a high IC50 value against GGTase, for example an IC50 (FTase)<100 nM, such as an IC50 (FTase)<10 nM, and an IC50 (GGTase)>100 nM, are potent and selective inhibitors of FTase, and are particularly preferred.
The inhibition activities of the compounds disclosed herein against Ftase and GGTase were measured in the respective fluorescence assays as follows:
For the GGTase assay, GGTase (25 nM), Dansyl labelled GCVLL peptide (10 μM), GGPP (10 μM) and inhibitor were mixed in assay buffer (50 mM Tris, pH 7.5, 10 mM magnesium chloride, 10 μM zinc chloride, 0.08% CHAPS, 5 mM dithiothreitol) and incubated in a total volume of 20 μL at 30° C. for 120 minutes.
For both the FTase assay and GGTase assay, fluorescence intensity was detected (excitation at 340 nm and emission at 486 nm) using EnVision (PerkinElmer; Waltham, MA), IC50 determinations were performed using a sigmoidal dose-response model with Xlfit software (IDBS, Inc.; Boston, MA), and tipifarnib was used as a positive control. All the assay plates for each assay passed the QC criteria (S/B, Z factor).

[5] = Metabolic stability in mouse liver microsomes; assay type: in vitro ADME; conditions: CD-1 mouse liver microsomes 0.5 mg protein/mL, test compound 1 μM, 37° C.; read-out: T1/2 in MLM
Procedure: as §1, §2, §3, §4, §5, §6, §7, §8, §9, §10, §11, §12, §13, §14, §15, §16, §17, §18, §19, §20, §21

T24/83 cells = experiment: T24/83 cell proliferation assay (CellTiter-Glo); assay type: cell-based; conditions: Homo sapiens, 96 h, 4 days
Procedure, shortened: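 HRAS-mutant T24/83 bladder carcinoma cells seeded at 100 cells/well and grown with inhibitor for 4 days at 37 °C; 0.7% DMSO negative control, 100 μM tipifarnib positive control. Viability by CellTiter-Glo luminescence.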

Molecule `Cn1cncc1C1(O)c2ccc(Br)c(c2)COc2cccc(c2)-c2cc(Cl)nc3ccc1cc23` (stereo not shown) [Compound 71, 4^4-bromo-2^2-chloro-3-(1-methyl-1H-imidazol-5-yl)-6-oxa-2(4,6)-quinolina-1,4(1,3)-dibenzenacyclohexaphan-3-ol] has an IC50 [1] of over 100 nM and a ring closure, yield of all isomers [2] of 84%.
With `[2H]C([2H])([2H])n1c(=O)cc2c3cc(ccc31)[C@@](N)(c1cncn1C)c1ccc(C#N)c(c1)CCc1cccc-2c1` [(R)-8, (R)-3-amino-2^1-(methyl-d3)-3-(1-methyl-1H-imidazol-5-yl)-2^2-oxo-2^1,2^2-dihydro-2(4,6)-quinolina-1,4(1,3)-dibenzenacyclohexaphane-4^4-carbonitrile] the half-life at 1 μM [3] was under 30 min, the IC50 [4] was over 1000 nM and the IC50 [1] was at most 10 nM. The half-life at 1 μM [5] was 5 to 15 min and the IC50 (T24/83 cells) was at most 50 nM.
Molecule `Cn1cncc1[C@@]1(N)c2ccc(Cl)c(c2)CCc2cccc(c2)-c2cc(=O)n(C)c3ccc1cc23` [(S)-4, (S)-3-amino-4^4-chloro-2^1-methyl-3-(1-methyl-1H-imidazol-5-yl)-2^1,2^2-dihydro-2(4,6)-quinolina-1,4(1,3)-dibenzenacyclohexaphan-2^2-one] has a half-life at 1 μM [3] of under 30 min, an IC50 [4] of over 1000 nM and an IC50 [1] of at most 10 nM. It also gave a half-life at 1 μM [5] of under 5 min and an IC50 (T24/83 cells) of at most 50 nM.
With `[2H]C([2H])([2H])n1c(=O)cc2c3cc(ccc31)[C@@](N)(c1cncn1C)c1ccc(C#N)c(c1)OCc1cccc-2c1` [(S)-20, (S)-3-amino-2^1-(methyl-d3)-3-(1-methyl-1H-imidazol-5-yl)-2^2-oxo-2^1,2^2-dihydro-5-oxa-2(4,6)-quinolina-1,4(1,3)-dibenzenacyclohexaphane-4^4-carbonitrile] the half-life at 1 μM [3] was over 100 min, the IC50 [4] was over 1000 nM and the IC50 [1] was at most 10 nM. The half-life at 1 μM [5] was over 15 min and the IC50 (T24/83 cells) was at most 50 nM.
In the case of `Cn1cncc1[C@@]1(O)c2ccc(Cl)c(c2)CCc2cccc(c2)-c2cc(=O)n(C)c3ccc1cc23` [(S)-3, (S)-4^4-chloro-3-hydroxy-2^1-methyl-3-(1-methyl-1H-imidazol-5-yl)-2^1,2^2-dihydro-2(4,6)-quinolina-1,4(1,3)-dibenzenacyclohexaphan-2^2-one], the half-life at 1 μM [3] is reported as under 30 min, the IC50 [4] is reported as over 1000 nM and the IC50 [1] is reported as at most 10 nM. For the same molecule, the half-life at 1 μM [5] was 5 to 15 min and the IC50 (T24/83 cells) was at most 50 nM.
With `Cn1cncc1[C@@]1(N)c2ccc(Cl)c(c2)OCCc2cccc(c2)-c2cc(=O)n(C)c3ccc1cc23` [(S)-27, (S)-3-amino-4^4-chloro-2^1-methyl-3-(1-methyl-1H-imidazol-5-yl)-2^1,2^2-dihydro-5-oxa-2(4,6)-quinolina-1,4(1,3)-dibenzenacycloheptaphan-2^2-one] the half-life at 1 μM [3] was under 30 min, the IC50 [4] was over 1000 nM and the IC50 [1] was at most 10 nM. It also gave a half-life at 1 μM [5] of under 5 min and an IC50 (T24/83 cells) of at most 50 nM.
`Cn1cncc1[C@@]1(N)c2ccc(C#N)c(c2)CCc2cccc(c2)-c2cc(=O)n(C)c3ccc1cc23` [(R)-7, (R)-3-amino-2^1-methyl-3-(1-methyl-1H-imidazol-5-yl)-2^2-oxo-2^1,2^2-dihydro-2(4,6)-quinolina-1,4(1,3)-dibenzenacyclohexaphane-4^4-carbonitrile] showed a half-life at 1 μM [3] of under 30 min, an IC50 [4] of over 1000 nM and an IC50 [1] of at most 10 nM. For the same molecule, the half-life at 1 μM [5] was 5 to 15 min and the IC50 (T24/83 cells) was at most 50 nM.
With `Cn1cncc1[C@@]1(O)c2ccc(Cl)c(c2)OCc2cccc(c2)-c2cc(=O)n(C)c3ccc1cc23` [(S)-14, (S)-4^4-chloro-3-hydroxy-2^1-methyl-3-(1-methyl-1H-imidazol-5-yl)-2^1,2^2-dihydro-5-oxa-2(4,6)-quinolina-1,4(1,3)-dibenzenacyclohexaphan-2^2-one] the half-life at 1 μM [3] was 30 to 100 min, the IC50 [4] was over 1000 nM and the IC50 [1] was at most 10 nM. The half-life at 1 μM [5] was under 5 min and the IC50 (T24/83 cells) was 50 to 500 nM.
With `[2H]C([2H])([2H])n1c(=O)cc2c3cc(ccc31)[C@@](N)(c1nncn1C)c1ccc(Cl)c(c1)OCCc1cccc-2c1` [(S)-34, (S)-3-amino-4^4-chloro-2^1-(methyl-d3)-3-(4-methyl-4H-1,2,4-triazol-3-yl)-2^1,2^2-dihydro-5-oxa-2(4,6)-quinolina-1,4(1,3)-dibenzenacycloheptaphan-2^2-one] the half-life at 1 μM [3] was under 30 min, the IC50 [4] was over 1000 nM and the IC50 [1] was at most 10 nM. The half-life at 1 μM [5] was 5 to 15 min and the IC50 (T24/83 cells) was 50 to 500 nM.
For `Cn1cncc1[C@@]1(N)c2ccc(C#N)c(c2)OCCc2cccc(c2)-c2cc(=O)n(C)c3ccc1cc23` [(S)-37, (S)-3-amino-2^1-methyl-3-(1-methyl-1H-imidazol-5-yl)-2^2-oxo-2^1,2^2-dihydro-5-oxa-2(4,6)-quinolina-1,4(1,3)-dibenzenacycloheptaphane-4^4-carbonitrile], the half-life at 1 μM [3] was under 30 min, the IC50 [4] was over 1000 nM and the IC50 [1] was at most 10 nM. For the same molecule, the half-life at 1 μM [5] was under 5 min and the IC50 (T24/83 cells) was at most 50 nM.
With `Cn1cncc1[C@@]1(N)c2ccc(C#N)c(c2)COc2cccc(c2)-c2cc(C#N)nc3ccc1cc23` [(S)-58, (S)-3-amino-3-(1-methyl-1H-imidazol-5-yl)-6-oxa-2(4,6)-quinolina-1,4(1,3)-dibenzenacyclohexaphane-2^2 4^4-dicarbonitrile] the half-life at 1 μM [3] was over 100 min, the IC50 [4] was over 1000 nM and the IC50 [1] was at most 10 nM. It also gave a half-life at 1 μM [5] of over 15 min and an IC50 (T24/83 cells) of at most 50 nM.
